The results in this text go back to BindingDB's records for doi:10.1016/j.bmcl.2015.06.096 (Vanderbilt University Medical Center, 2015).

This assay deals with Metabotropic glutamate receptor 5 (Homo sapiens, UniProt P41594). Nature of the assay: Positive allosteric modulation of human mGlu5 receptor expressed in HEK293 cells by calcium mobilization assay.

pEC50: −log10 of the molar value.

Chain of Metabotropic glutamate receptor 5 (P41594 whole entry): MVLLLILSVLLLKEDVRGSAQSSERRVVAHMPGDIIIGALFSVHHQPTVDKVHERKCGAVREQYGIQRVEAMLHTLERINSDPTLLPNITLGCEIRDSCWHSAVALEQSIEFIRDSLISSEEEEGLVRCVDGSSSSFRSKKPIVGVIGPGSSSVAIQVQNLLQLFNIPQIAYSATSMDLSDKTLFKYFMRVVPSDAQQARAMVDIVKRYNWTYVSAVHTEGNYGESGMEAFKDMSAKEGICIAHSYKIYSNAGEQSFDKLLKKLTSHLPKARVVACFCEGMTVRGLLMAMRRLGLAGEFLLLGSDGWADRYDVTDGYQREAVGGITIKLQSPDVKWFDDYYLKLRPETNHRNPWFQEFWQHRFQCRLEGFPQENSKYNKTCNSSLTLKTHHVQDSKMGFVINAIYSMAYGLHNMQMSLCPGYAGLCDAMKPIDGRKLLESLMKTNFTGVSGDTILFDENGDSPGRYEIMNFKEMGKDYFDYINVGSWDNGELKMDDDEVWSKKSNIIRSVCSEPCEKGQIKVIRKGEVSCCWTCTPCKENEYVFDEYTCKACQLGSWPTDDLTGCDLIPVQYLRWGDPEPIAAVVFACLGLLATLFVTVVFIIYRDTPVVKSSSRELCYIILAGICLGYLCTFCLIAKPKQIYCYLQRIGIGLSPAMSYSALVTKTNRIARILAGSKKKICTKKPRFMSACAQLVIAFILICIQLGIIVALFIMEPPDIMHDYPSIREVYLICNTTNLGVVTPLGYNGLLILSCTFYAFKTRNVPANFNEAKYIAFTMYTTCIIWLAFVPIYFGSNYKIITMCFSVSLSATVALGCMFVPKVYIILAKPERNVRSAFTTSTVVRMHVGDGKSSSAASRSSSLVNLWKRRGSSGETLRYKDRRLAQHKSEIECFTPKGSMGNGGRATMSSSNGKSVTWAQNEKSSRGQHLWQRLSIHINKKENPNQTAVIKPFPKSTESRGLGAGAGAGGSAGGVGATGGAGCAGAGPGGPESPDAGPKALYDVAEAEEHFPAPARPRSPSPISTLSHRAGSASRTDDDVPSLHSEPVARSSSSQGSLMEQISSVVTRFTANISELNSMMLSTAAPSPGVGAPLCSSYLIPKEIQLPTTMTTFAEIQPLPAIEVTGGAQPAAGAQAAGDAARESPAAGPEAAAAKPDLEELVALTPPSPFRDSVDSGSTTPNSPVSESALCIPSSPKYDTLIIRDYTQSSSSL

Take `O=C(c1c(F)cccc1F)N1CCc2nc(COc3cccc(F)c3)oc2C1`: the negative logarithm of the EC50 (pEC50) was 6.49.

One may read the pEC50 as the negative decadic logarithm of the EC50, by convention in mol/L.
